Where a SMILES comes first, the peptide text is derived from it.

The record followed here is the pKa sets of Baltruschat and Czodrowski (2020).

Take `O=C(O)/C=C/c1ccoc1`: the pKa (acidic group) was 4.31.

`Cc1cc(C)c([N+](=O)[O-])c(C)c1O` gave a pKa (acidic group) of 8.98. Compound `CC1(C)CCC(C2CCC(C)(C)N2)N1` (centres undefined) yielded a pKa (basic group) of 10.3.

In turn, `O=C(O)C12CCC(CC1)C2` had a pKa (acidic group) of 4.89. Compound `CCC1=CC(=O)C=C(CC)C1=NO` yielded a pKa (acidic group) of 8.34. The compound `NCCCCCC[NH3+]` had a pKa (basic group) of 10.2. On the same count and under the same terms, next, `O=C([O-])[C@@H]1Cc2[nH]cnc2C[NH2+]1`: 4.73; `N=C(Nc1ccccc1)Nc1nc(N)nc(N)n1`: 8.2. On the same count and under the same terms, next, `Cc1ccc([N+](=O)[O-])cc1/C(=N/CCC[NH+](C)C)c1ccccc1`: 3.14. On to `Nc1ccc(S(=O)(=O)Nc2nccs2)cc1`, for which the pKa is 7.25 (acidic group) and 2.35 (basic group).

In turn, `N[C@@H](Cc1c[nH]cn1)C(=O)NCC(=O)[O-]` (H-His-Gly-OH) showed a pKa (basic group) of 7.82. The same measure, in the same setting: the figure for `c1ccc(-c2cccnc2)nc1` is 4.42. With `c1ccc2c(c1)ccc1nc[nH]c12`, the pKa turned out to be 12.5 (acidic group) and 5.28 (basic group). As to `O=[N+]([O-])c1ccc([Se](=O)O)cc1`, for the setting “acidic group”, the pKa was determined as 4.

In the case of `Oc1ccc2c(c1)Nc1ccccc1N2`, the pKa (basic group) turned out to be 1.8. Regarding `O=C(O)c1ccc(F)cc1`, the pKa (acidic group) was determined as 4.16.

With `Cc1ccc([N+](C)(C)C)cc1O`, the pKa (acidic group) came to 8.2. For the compound `Nc1cncn1[C@H]1O[C@@H](CO)[C@H](O)[C@@H]1O`, under “basic group”, the pKa worked out at 6.05.

The compound `CN(C)CCNC(=O)/C=N/[O-]` registered a pKa (basic group) of 9.43. As to `N#Cc1c[nH+]c2ccccc2c1O`, the pKa (acidic group) was -2.08. The compound `CCCCN(C(=O)c1cc([N+](=O)[O-])ccc1O)c1ccc(/N=N/c2ccc3c(c2)OCCOCCOCCOCCOCCO3)cc1` yielded a pKa (acidic group) of 6.3.

As to `NC(=O)CN(CCN(CC(N)=O)Cc1ccccc1O)Cc1ccccc1O`, the pKa (acidic group) came to 10.2 and the pKa (basic group) was 6.54. Where the note is “basic group”, `O=[N+]([O-])c1ccc2[nH]ncc2c1` yielded a pKa of 0.13. Still for that read-out and setting: next, `CC[C@]12CCCN3CC[C@@]4(c5cccc(OC)c5N(C(C)=O)[C@H]4CC1)[C@@H]32`: 7.57.

For the setting “acidic group”, `Oc1cc[nH+]c2cccnc12` displayed a pKa of 2.85. `NCC[NH2+]CCCO` registered a pKa (basic group) of 6.78. The same measure, in the same setting: the figure for `[S-]c1ncccn1` is 7.2; for `Nc1ccc(-c2ncc(-c3ccc(Br)cc3)o2)cc1` it is 2.8. On the same count and under the same terms, next, `CCN(CC)c1ccc(C(O)(c2ccccc2)c2ccc(N(CC)CC)cc2)cc1`: 7.9; `COC(=N)N`: 9.72; `O=[N+]([O-])c1cccc2nc3ccccc3c(NCCCO)c12`: 7.55. Under “basic group”, `Cn1cnc2c([O-])nc(N)nc21` came in with a pKa of 9.92. On the same count and under the same terms, next, `OCC1CC2CCN1CC2` (centres undefined): 10.8. Turning to `[NH3+]CCNC(=S)S`, the pKa (acidic group) turned out to be 2.

Take `O=C(O)COc1ccccc1[N+](=O)[O-]`: where the note is “acidic group”, the pKa amounted to 2.9. `C[NH+]1CCCC1c1ccc(Cl)nc1` (centres undefined) displayed a pKa (basic group) of -1.3. In turn, `O=C(NO)C1CCCCC1` gave a pKa (acidic group) of 9.87.

For `COc1ccc(C[C@H](C)N)cc1OC`, the pKa (basic group) came out at 9.6.

Compound `Nc1ccc(-c2ccc([NH3+])cc2)cc1` had a pKa (basic group) of 3.66. For the setting “acidic group”, `CCC#CC#CC#CC(=O)O` had a pKa of 1.67. Consider `Cc1c[nH+]c(C)cn1`, for which, where the note is “basic group”, the pKa is -4.42. `Cn1ncc2c(NC(C)(C)CC(C)(C)C)ncnc21` had a pKa (basic group) of 3.96. For `Oc1cccc2ncccc12`, the pKa worked out at 8.54 (acidic group) and 5.2 (basic group).

With `C/C(=C\c1cc(C(C)(C)C)c(O)c(C(C)(C)C)c1)C(=O)[O-]`, under “acidic group”, the pKa turned out to be 11.5. As for `Cc1cc(C)cc(C(=N)c2ccccc2)c1`, under “basic group”, the pKa was 6.82. `COc1cccc[n+]1O` yielded a pKa (acidic group) of 1.23. On the same count and under the same terms, the figure for `CC(=N\[O-])/C(C)=N/O` is 11.9. Regarding `Nc1ccc2[nH]c(CCc3ccccc3)nc2c1`, under “basic group”, the pKa amounted to 7.2. On to `COc1ccc(CCC(=O)O)cc1`, for which the pKa (acidic group) is 4.72. `CC(C)CCSC(=N)c1ccccc1` returned a pKa (basic group) of 8.43.

Where the note is “basic group”, `CN(C)c1ccc(Cl)cc1` came in with a pKa of 4.39. On the same count and under the same terms, the figure for `Clc1ccc(-c2cnc(-c3ccccc3)o2)cc1` is 0.7. Compound `COC(=O)c1ccccc1-n1nc(O)cc1C` gave a pKa (acidic group) of 12.3. On to `c1ccc(-c2ccccn2)nc1`, for which the pKa (basic group) amounted to 4.42. In turn, `O=C(NOC(=O)c1ccccc1)c1ccccc1` gave a pKa (acidic group) of 6. With `Cc1ccc(C(=S)Nc2ccc(Cl)cc2)cc1`, the pKa (acidic group) was found to be 10.8. Consider `COc1ccc2c3c1O[C@@H]1C(=O)CC[C@]4(O)[C@H](C2)N(C)CC[C@@]314`, for which the pKa (basic group) turned out to be 8.6. Consider `Oc1cccc2c1-c1ccccc1-2`, for which the pKa (acidic group) was found to be 8.64. Regarding `Oc1c(Cl)cc(Cl)c(Cl)c1C[NH+]1CCCCC1`, for the setting “acidic group”, the pKa worked out at 5.06. As for `Cn1ccc(N)n1`, where the note is “basic group”, the pKa worked out at 3.81. Same read-out and setting: next, `Cc1cnc([C@@H](O)[C@H](O)[C@H](O)CO)cn1`: 1.4. The same measure, in the same setting: next, `c1ccc(-c2ccc3ncc(CN4CCOCC4)n3n2)cc1`: 6.21; `Cc1ccccc1NC1CCCC1`: 5.07; `COc1ccccc1/C(=N/CCC[NH+](C)C)c1ccccc1`: 4.62. Still for that read-out and setting: next, `NCCCCC[NH3+]`: 9.73. On to `Cc1ccccc1CN`, for which, for the setting “basic group”, the pKa came out at 9.23. In turn, `O=[PH](O)C([NH2+]Cc1cc[nH+]cc1)c1ccccc1O` (centres undefined) displayed a pKa (acidic group) of 2.35. Take `C[C@H](O)C(=O)C1=Nc2c([O-])nc(N)nc2NC1`: under “basic group”, the pKa stood at 10.1.

For `CCCC(=O)C(CCN1CCOCC1)(c1ccccc1)c1ccccc1`, the pKa (basic group) amounted to 7.17. In turn, `Cc1ccc(SCC(=O)O)cc1` yielded a pKa (acidic group) of 3.57.

Regarding `C[Si](C)(C)OC1CN(Cc2ccc(F)cc2)C1`, the pKa (basic group) stood at 7.91.

In the case of `CC1(C)CC(=O)C2=C(C1)NC1=C(C2)C(=O)CC(C)(C)C1`, the pKa (acidic group) came to 3.6.

Take `COc1cc(S(C)=O)ccc1-c1nc2nnccc2[nH]1` (centres undefined): the pKa reads like this: (acidic group) 8.71; (basic group) 3.63. Consider `O=C1CC[C@H]2N1CC[C@H]1c3ccccc3CCN12`, for which the pKa (basic group) came to 4.89.

Regarding `COc1ccc2c3c([nH]c2c1)C(C)=NCC3`, the pKa runs as follows: (acidic group) 15.3; (basic group) 9.72. In turn, `Nc1ccnnc1` came in with a pKa (basic group) of 6.69.

Where the note is “basic group”, `CN[C@@H]1[C@@H](C)[C@@H]1NC` gave a pKa of 9.13. `CC(=O)c1ccccc1NN=C(C(=O)c1ccccc1)C(=O)c1ccccc1` registered a pKa (acidic group) of 9.2. Same read-out and setting: next, `O=[N+]([O-])CCc1ccccc1`: 8.55. For `N/C(=N\O)c1ccccc1N`, the pKa (basic group) is 4.5. In turn, `Nc1c[nH+]c(S)nc1N` yielded a pKa (acidic group) of 2.96. For the compound `CN(C)c1cccc2c(S(N)(=O)=O)cccc12`, the pKa is, setting by setting: (acidic group) 9.9; (basic group) 3.8. With `COc1cccc(C(=O)O)c1`, for the setting “acidic group”, the pKa turned out to be 4.06. In the case of `NCCCCBr`, the pKa (basic group) was 10. `[NH3+]CC(=O)N1CCC[C@H]1C(=O)O` came in with a pKa (acidic group) of 2.95.

With `Brc1ccc2c(c1)CCN2`, the pKa (basic group) was 3.7.

Take `CCC(C)(C)NC1CCCCC1`: the pKa (basic group) is 11.2.

As to `Oc1cccc2cc3ccccc3cc12`, the pKa (acidic group) is 9.88. Under “basic group”, `CC1=C(CC(C)NCC(O)c2ccc(N)cc2)CCC1(C)C` (centres undefined) registered a pKa of 9.01. `CCc1cc(O)cc(C)c1Cl` showed a pKa (acidic group) of 9.6. Consider `CNc1nc(C)nc2c1cnn2C`, for which the pKa (basic group) was 5.

`c1cnccn1` yielded a pKa (basic group) of 0.57. On the same count and under the same terms, next, `CC[NH+](CC)CCCCCCCC(C)Nc1c2ccc(Cl)cc2nc2ccc(OC)cc12` (centres undefined): 8; `Clc1cccnc1`: 2.77. The compound `Cc1cc2ccccc2c(C(=O)O)c1C` registered a pKa (acidic group) of 3.33. For the setting “basic group”, `CCN(CC#N)CC#N` registered a pKa of 3.98. Still for that read-out and setting: next, `C[C@H](N)C(=O)N[C@@H](Cc1c[nH]cn1)C(=O)[O-]` (H-Ala-His-OH): 8.08; `Nc1nsc2ccccc12`: 2.45. As to `CC1CCCC/C1=N\CC(=O)[O-]` (centres undefined), the pKa (basic group) stood at 9.64. `OCC[NH+](CCO)Cc1nc2ccccc2[nH]1` gave a pKa (basic group) of 2.15. Compound `CCc1cc(Cl)c(OC)c(C(=O)NC[C@H]2CCC[NH+]2CC)c1O` gave a pKa (acidic group) of 6.91. On the same count and under the same terms, next, `Cc1cccc([N+](=O)[O-])c1C(=O)O`: 2.13; `O=C(CC(=O)c1ccccc1)Nc1ccc([N+](=O)[O-])cc1`: 8.91. Compound `O=C(N/N=C/c1ccccc1O)c1ccncc1` gave a pKa (acidic group) of 8.31 and a pKa (basic group) of 3.33. As for `O=C(O)c1[nH]c[nH+]c1C(=O)[O-]`, the pKa (acidic group) worked out at 4.27. `Cc1cccnc1N` gave a pKa (basic group) of 7.24. `O=C1COC(=O)C1[N+](=O)[O-]` (centres undefined) came in with a pKa (acidic group) of 1.68. As to `CN(C)c1ccc[nH+]c1`, the pKa (basic group) was -1.91. As for `Cc1ccccc1C[N+](=O)[O-]`, for the setting “acidic group”, the pKa is 7.6.

`Nc1ccc(/N=N/c2ccccc2)cc1`: the pKa (basic group) came out at 2.82. Under “acidic group”, `OC(O)c1cccnc1` registered a pKa of 13.1. The same measure, in the same setting: the figure for `CC1=CC(C)(C)SC(=S)N1` is 10.9; for `CCC(C)(C)C(=O)O` it is 5.03. `Cn1cnc2cncnc21` displayed a pKa (basic group) of 2.42.

`O=C(O)CCC(=O)c1ccc(-c2ccccc2)cc1`: under “acidic group”, the pKa is 4.46. For the setting “acidic group”, `NNC(=O)C(F)F` gave a pKa of 9.66. In turn, `N#Cc1cccnc1` displayed a pKa (basic group) of 1.48. As to `CCCCCCCCCCCCCCN(CC(C)O)CC(O)CC` (centres undefined), the pKa (basic group) was found to be 6.1. Same read-out and setting: next, `C=CCc1c(O)n[nH]c1C`: 2.8; `CCN(CC)Cc1cccc(C)c1O`: 8.19. `NCC[S-]` displayed a pKa (basic group) of 10.7. In turn, `O=C(C[N+](=O)[O-])c1ccccc1` registered a pKa (acidic group) of 5.19. `c1cc(N2CCCC2)cc[nH+]1` came in with a pKa (basic group) of -0.53. Take `CCC#CC#CC(=O)O`: the pKa (acidic group) turned out to be 1.91. For the setting “basic group”, `c1cnc2ncncc2n1` had a pKa of 4.13. Where the note is “basic group”, `O=[N+]([O-])c1ccc2[nH]c(C(F)(F)Cl)nc2c1` returned a pKa of 0.77.

`CCc1c(O)nn(-c2ccccc2C(=O)[O-])c1C`: for the setting “acidic group”, the pKa was 12.2. Regarding `CNCC(=O)NC`, the pKa (basic group) is 8.28. Same read-out and setting: the figure for `COc1ccc(/C=N/c2ncc3nc[nH]c3n2)cc1` is 3.86; for `CC(C)[C@H]1CN[C@H](C(=O)[O-])[C@H]1CC(=O)[O-]` it is 10.6. On to `Cc1ccc(NCO)cc1`, for which the pKa (basic group) stood at 3.42.
